Reference: PubChem BioAssay AID1845217 (Molecular Pharmacology Branch, DTP, NCI, 2023)

System: VA-ES-BJ tumor spheroid viability
Test: Anticancer human tumor VA-ES-BJ cell line growth inhibition;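 also: spheroids exposed to compounds for seven days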;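 as to viability, T/C: percent of DMSO vehicle control viability so 100% = untreated growth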
Details: spheroids with HUVEC and MSC; for IC50: curve of first compound; for viability, T/C: stronger effect = lower value
How it was run: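 Complex tumor spheroids combined malignant cells with endothelial cells and mesenchymal stem cells. DNA-damaging drugs and DNA repair inhibitors were tested alone and in combination, at half-log dilutions down from clinical Cmax (top 10 microM if Cmax unknown), 0.25% DMSO final.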

[1] = second compound 1 µM, first compound 0.0316 µM
[2] = second compound 1 µM, first compound 0.1 µM
[3] = second compound 1 µM, first compound 0.316 µM
[4] = second compound 1 µM, first compound 1 µM
[5] = second compound 1 µM, first compound 3.16 µM
[6] = second compound 1 µM, first compound 10 µM
[7] = second compound 3.16 µM, first compound 0.0316 µM
[8] = second compound 3.16 µM, first compound 0.1 µM
[9] = second compound 3.16 µM, first compound 0.316 µM
[10] = second compound 3.16 µM, first compound 1 µM
[11] = second compound 3.16 µM, first compound 3.16 µM
[12] = second compound 3.16 µM, first compound 10 µM
[13] = second compound 10 µM, first compound 0.0316 µM
[14] = second compound 10 µM, first compound 0.1 µM
[15] = second compound 10 µM, first compound 0.316 µM
[16] = second compound 10 µM, first compound 1 µM
[17] = second compound 10 µM, first compound 3.16 µM
[18] = second compound 10 µM, first compound 10 µM
[19] = second compound 31.6 µM, first compound 0.0316 µM
[20] = second compound 31.6 µM, first compound 0.1 µM
[21] = second compound 31.6 µM, first compound 0.316 µM
[22] = second compound 31.6 µM, first compound 1 µM
[23] = second compound 31.6 µM, first compound 3.16 µM
[24] = second compound 31.6 µM, first compound 10 µM
[25] = second compound 100 µM, first compound 0.0316 µM
[26] = second compound 100 µM, first compound 0.1 µM
[27] = second compound 100 µM, first compound 0.316 µM
[28] = second compound 100 µM, first compound 1 µM
[29] = second compound 100 µM, first compound 3.16 µM
[30] = second compound 100 µM, first compound 10 µM

Row | Compound | IC50 (second compound 1 µM) | IC50 (second compound 3.16 µM) | IC50 (second compound 10 µM) | IC50 (second compound 31.6 µM) | IC50 (second compound 100 µM) | viability, T/C [1] | viability, T/C [2] | viability, T/C [3] | viability, T/C [4] | viability, T/C [5] | viability, T/C [6] | viability, T/C [7] | viability, T/C [8] | viability, T/C [9] | viability, T/C [10] | viability, T/C [11] | viability, T/C [12] | viability, T/C [13] | viability, T/C [14] | viability, T/C [15] | also measured
1 | CC(C)n1c(=O)n(C)c2cnc3cc(F)c(-c4ccc(OCCCN5CCCCC5)nc4)cc3c21 + Cn1nnc2c(C(N)=O)ncn2c1=O | > 10000 nM | > 10000 nM | > 10000 nM | > 10000 nM | > 10000 nM | 93% | 92.2% | 93% | 105% | 110% | 77.8% | 94% | 86.3% | 93.3% | 110% | 111% | 55.6% | 92.2% | 94.3% | 88% | viability, T/C [16]: 103%; viability, T/C [17]: 111%; viability, T/C [18]: 62.1%; viability, T/C [19]: 80.6%; viability, T/C [20]: 100%; viability, T/C [21]: 103%; viability, T/C [22]: 103%; viability, T/C [23]: 113%; viability, T/C [24]: 53.3%; viability, T/C [25]: 103%; viability, T/C [26]: 102%; viability, T/C [27]: 106%; viability, T/C [28]: 116%; viability, T/C [29]: 109%; viability, T/C [30]: 101%
2 | CC1COCCN1c1cc(-c2ccnn2C)c2ccnc(-c3ccn[nH]3)c2n1 (stereo not given) + Cn1nnc2c(C(N)=O)ncn2c1=O | 118 nM | 127 nM | 111 nM | 84.1 nM | 56.1 nM | 94.7% | 52.9% | 29% | 8.26% | 6.9% | 6.16% | 85.2% | 54.7% | 30.1% | 9.03% | 6.96% | 5.94% | 87.7% | 51.8% | 26.4% | viability, T/C [16]: 8.47%; viability, T/C [17]: 6.49%; viability, T/C [18]: 6.12%; viability, T/C [19]: 81.3%; viability, T/C [20]: 44%; viability, T/C [21]: 23.2%; viability, T/C [22]: 9.91%; viability, T/C [23]: 6.7%; viability, T/C [24]: 5.99%; viability, T/C [25]: 62.7%; viability, T/C [26]: 37.2%; viability, T/C [27]: 18.4%; viability, T/C [28]: 8.87%; viability, T/C [29]: 6.58%; viability, T/C [30]: 5.6%
3 | COc1cc(C)[nH]c(=O)c1CN1CCc2c(Cl)cc(C(OC)C3COC3)c(Cl)c2C1=O (stereo not given) + Cn1nnc2c(C(N)=O)ncn2c1=O | 9570 nM | > 10000 nM | 3260 nM | 3360 nM | 2220 nM | 94% | 88.8% | 72.2% | 61.4% | 54% | 49% | 97.6% | 85.8% | 70.8% | 60.3% | 56.1% | 49.5% | 89% | 87.2% | 71.6% | viability, T/C [16]: 58.4%; viability, T/C [17]: 52.4%; viability, T/C [18]: 45.2%; viability, T/C [19]: 95.5%; viability, T/C [20]: 85.4%; viability, T/C [21]: 68.9%; viability, T/C [22]: 56.8%; viability, T/C [23]: 51.9%; viability, T/C [24]: 46%; viability, T/C [25]: 106%; viability, T/C [26]: 90.2%; viability, T/C [27]: 75.1%; viability, T/C [28]: 53.8%; viability, T/C [29]: 48.7%; viability, T/C [30]: 42.7%
4 | COc1ccc([C@@H](O)c2cc(-c3ncnc4cc(N5CCOCC5)ccc34)c(F)cc2Cl)nn1 + Cn1nnc2c(C(N)=O)ncn2c1=O | 477 nM | 574 nM | 602 nM | 623 nM | 547 nM | 94.9% | 79.5% | 56.8% | 37.9% | 15.8% | 7.65% | 92.4% | 89.6% | 70% | 31% | 13.2% | 7.49% | 92.5% | 84.4% | 63.5% | viability, T/C [16]: 41.5%; viability, T/C [17]: 11.4%; viability, T/C [18]: 7.61%; viability, T/C [19]: 85.6%; viability, T/C [20]: 83%; viability, T/C [21]: 65.8%; viability, T/C [22]: 38.8%; viability, T/C [23]: 16.1%; viability, T/C [24]: 7.46%; viability, T/C [25]: 96.2%; viability, T/C [26]: 98.1%; viability, T/C [27]: 61.5%; viability, T/C [28]: 35%; viability, T/C [29]: 13.9%; viability, T/C [30]: 8.08%
5 | Cc1cc(C)c(CNC(=O)c2cc(-c3ccc(CN4CCOCC4)cc3)cc3c2cnn3C2CCCC2)c(=O)[nH]1 + Cn1nnc2c(C(N)=O)ncn2c1=O | > 10000 nM | > 10000 nM | > 10000 nM | > 10000 nM | > 10000 nM | 114% | 97.9% | 101% | 113% | 117% | 104% | 99.2% | 102% | 92.7% | 97.6% | 110% | 101% | 102% | 100% | 101% | viability, T/C [16]: 109%; viability, T/C [17]: 108%; viability, T/C [18]: 104%; viability, T/C [19]: 91.2%; viability, T/C [20]: 96.8%; viability, T/C [21]: 94.8%; viability, T/C [22]: 110%; viability, T/C [23]: 104%; viability, T/C [24]: 96%; viability, T/C [25]: 103%; viability, T/C [26]: 108%; viability, T/C [27]: 92.1%; viability, T/C [28]: 102%; viability, T/C [29]: 122%; viability, T/C [30]: 109%
6 | [2H]c1nc(C)nc([2H])c1-c1cc(NC[C@@H](C)c2cccc3c(C(=O)NC)ccnc23)ncn1 + Cn1nnc2c(C(N)=O)ncn2c1=O | > 10000 nM | > 10000 nM | > 10000 nM | > 10000 nM | > 10000 nM | 108% | 105% | 106% | 94.7% | 95.8% | 92.5% | 111% | 90.1% | 90.2% | 91.1% | 98.3% | 97% | 111% | 94.6% | 97.5% | viability, T/C [16]: 101%; viability, T/C [17]: 94.1%; viability, T/C [18]: 95.6%; viability, T/C [19]: 114%; viability, T/C [20]: 103%; viability, T/C [21]: 105%; viability, T/C [22]: 99.2%; viability, T/C [23]: 89.4%; viability, T/C [24]: 85.6%; viability, T/C [25]: 103%; viability, T/C [26]: 102%; viability, T/C [27]: 107%; viability, T/C [28]: 104%; viability, T/C [29]: 99.9%; viability, T/C [30]: 96%
